In patent publication US11185077B2, “Attractants for rodents” (priority 2016, dated 2021):

Columns and labels:
house mice, Mus musculus = assay: Laboratory T-tube bioassay: behavioral responses of mice (first choice, time spent); assay type: in vivo; conditions: male mice
From the text: A laboratory experimental apparatus was constructed to test the behavioral responses of mice to the compositions described herein. The experimental design is depicted in FIG. 4 and includes three clear Plexiglas chambers: release chamber (1: 40 cm×20 cm×30 cm for placement of a mouse at the onset of a bioassay), and response chambers (3a and 3b: each 60 cm×30 cm×40 cm) interconnected by a Pyrex glass T-tube (2; stem: 65 cm long, side arms: 45 cm long, all 10 cm in diameter). Each response chamber housed a test stimulus in a Petri dish (4a, 4b; 3 cm diam.). For each replicate, a single mouse was deprived of food, but not water, for 4-6 h before being placed into chamber 1, which was illuminated by dim red light to facilitate observations of the mouse's position. The mouse was allowed to enter the stem of the T-tube (2) on its own accord in response to test stimuli, which were randomly assigned to response chamber 3a or 3b.
Both response chambers were fitted with a Petri dish (4a, 4b) containing a Whatman #1 filter paper disk (25 mm diam.) treated with a randomly assigned treatment stimulus or control stimulus. For each bioassay, a single mouse was tested and the following data were recorded: (1) the treatment or control chamber the mouse entered first with all four paws (“first-choice data”); and (2) the position of the mouse at each of 30 30-sec intervals after its first entry into the T-tube. Position data were then used to calculate the proportion of time a mouse spent in the treatment or control chamber (“time-spent data”).
Following each replicate, the chambers and T-tube were cleaned with a Percept® disinfectant detergent (Virox Technologies Inc. Mississaugua ON L5N 5M4, Canada) and wiped with 70% ethanol.
First-choice data and the time spent in a trap box quadrant were analyzed using a χ^2 test with Yates' correction for continuity (α=0.05) and the Student's t-test (α=0.05), respectively.
In Experiment 5, the laboratory experimental design of FIG. 4 was used to evaluate the responses of female mice to synthetic androstenone. For Experiment 5, the treatment stimulus consisted of filter paper treated with 4 μg of synthetic androstenone (see Experiments 1 and 2), and the control stimulus consisted of filter paper treated with the 50 μl of ether without androstenone.
In Experiment 6, the laboratory experimental design of FIG. 4 was used to evaluate the responses of male mice to blends of synthetic progesterone and estrogen. For Experiment 6, the treatment stimulus consisted of filter paper treated with a 4-μg blend of the synthetic hormones progesterone and estrogen formulated in 50 μl of ether at a ratio of 100:1 and a control stimulus which consisted of filter paper treated with 50 μl of ether.
In Experiments 9 to 11, the laboratory experimental design of FIG. 4 was used to evaluate the responses of male mice to synthetic progesterone and estrogen. For the Experiments, the treatment stimulus consisted of filter paper treated with a blend of the synthetic progesterone (50 ng) and estrogen (25 ng) (hereinafter “synthetic hormone blend”) (Experiment 9), progesterone alone (75 ng) (Experiment 10) or estrogen alone (75 ng) (Experiment 11) formulated in 50 μl ether. The control stimulus consisted of filter paper treated with 50 μl of ether for each of Experiments 9 to 11.
Experiment 12 used the laboratory experimental apparatus of FIG. 4 to test choices of female mice between filter paper treated with 75 ng of synthetic testosterone (the treatment stimulus) formulated in 50 μl of ether and control filter paper treated with 50 μl of ether. Experiment 13 was identical to Experiment 12 except that the treatment stimulus consisted of filter paper treated with 75 ng of synthetic androstenone.

[1] = tested on: wild house mice, Mus musculus; assay: Field experiments with paired trap boxes: trap captures of wild mice; assay type: in vivo
[2] = Experiment 11, estrogen alone (75 ng)
[3] = Experiment 10, progesterone alone (75 ng)
[4] = Experiment 22, 750 ng of progesterone

With `C[C@]12CC[C@@H]3c4ccc(O)cc4CC[C@H]3[C@@H]1CC[C@@H]2O` [estrogen, (8R,9S,13S,14S,17S)-13-methyl-6,7,8,9,11,12,14,15,16,17-decahydrocyclopenta[a]phenanthrene-3,17-diol] the “first entry into baited chamber vs control chamber” value (house mice, Mus musculus; [2]) was “significantly more often”, the “responsiveness of male mice compared with progesterone” value (house mice, Mus musculus; [2]) was “more responsive to estrogen than to progesterone” and the “time spent in treatment chamber vs control chamber” value (house mice, Mus musculus; [2]) was “significantly more time”. The “captures of wild mice vs control traps” value ([1]; Experiment 23, 750 ng of estradiol (estrogen)) was “as ineffective as control traps”.

`CC(=O)[C@H]1CC[C@H]2[C@@H]3CCC4=CC(=O)CC[C@]4(C)[C@H]3CC[C@]12C` [progesterone] was tested, and the “first entry into treated chamber vs control chamber” value (house mice, Mus musculus; [3]) was “did not significantly choose to first enter”, the “responses of male mice compared with the blend” value (house mice, Mus musculus; [3]) was “less pronounced” and the “time spent in treated chamber vs control chamber” value (house mice, Mus musculus; [3]) was “significantly more time”. The “captures of adult male mice vs control traps” value [1, 4] was “significantly more” and the “captures of juvenile male mice vs control traps” value [1, 4] was “significantly more”.
